ChEMBL document CHEMBL1201862, “PubChem BioAssay data set” (2004)
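Five compound concentrations were applied to cells in 96-well plates for 48 hours; endpoints were derived by simple linear interpolation of the resulting dose-response curve. GI50 marks 50% less growth.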 Active and inactive are the calls of the source. Rule as the data show it: active = GI50 up to about 1.1 µM and inactive = higher.

Key:
Experiment in all cases: NCI-60 cell line screen, 48 h
M14 = test system: M14
Malme-3M = test system: Malme-3M
NCI/ADR-RES = test system: NCI/ADR-RES
MCF7 = test system: MCF7
UACC-257 = test system: UACC-257
A498 = test system: A498
HOP-62 = test system: HOP-62
EKVX = test system: EKVX
SF-539 = test system: SF-539
OVCAR-3 = test system: OVCAR-3
NCI-H522 = test system: NCI-H522
RPMI-8226 = test system: RPMI-8226
LOX IMVI = test system: LOX IMVI
OVCAR-5 = test system: OVCAR-5
SK-MEL-2 = test system: SK-MEL-2
TK-10 = test system: TK-10
OVCAR-4 = test system: OVCAR-4
SK-OV-3 = test system: SK-OV-3
OVCAR-8 = test system: OVCAR-8
SR = test system: SR

Row | Structure (SMILES) | GI50 (M14) | GI50 (Malme-3M) | GI50 (NCI/ADR-RES) | GI50 (MCF7) | GI50 (UACC-257) | GI50 (A498) | GI50 (HOP-62) | GI50 (EKVX) | GI50 (SF-539) | GI50 (OVCAR-3) | GI50 (NCI-H522) | GI50 (RPMI-8226) | GI50 (LOX IMVI) | GI50 (OVCAR-5) | GI50 (SK-MEL-2) | GI50 (TK-10) | GI50 (OVCAR-4) | GI50 (SK-OV-3) | GI50 (OVCAR-8) | GI50 (SR)
1 | COc1ccc(-c2c(C#N)c(N)nc(Sc3ccccc3N)c2C#N)cc1 | 27.9 µM (inactive) | 10.2 µM (inactive) | 7.69 µM (inactive) | 14.6 µM (inactive) | 39.3 µM (inactive) | 4.73 µM (inactive) | 6.1 µM (inactive) | 15.7 µM (inactive) | 12.1 µM (inactive) | 22.1 µM (inactive) | 10 µM (inactive) | > 75.5 µM (inactive) | 16.8 µM (inactive) | > 53.5 µM (inactive) | 9.57 µM (inactive) | 10.9 µM (inactive) | 13.6 µM (inactive) | 9.53 µM (inactive) | 8.11 µM (inactive) | 43.7 µM (inactive)
2 | O=C(NNC(=S)Nc1ccccc1)C12CC3CC(CC(C3)C1)C2 | 13.8 µM (inactive) | 20 µM (inactive) | 15.5 µM (inactive) | 19.2 µM (inactive) | 31.7 µM (inactive) | 21.1 µM (inactive) | 35.2 µM (inactive) | 36 µM (inactive) | 25.8 µM (inactive) | 10.6 µM (inactive) | 28.1 µM (inactive) | 17.3 µM (inactive) | 11.2 µM (inactive) | 59.4 µM (inactive) | 22.1 µM (inactive) | 39.5 µM (inactive) | 29.2 µM (inactive) | 41.4 µM (inactive) | 21.7 µM (inactive) | 0.252 µM (active)
3 | Cc1n[nH]c(C(F)(F)F)c1/N=N/N1CCOCC1 | 14.7 µM (inactive) | 14.9 µM (inactive) | 6.76 µM (inactive) | 3.78 µM (inactive) | 9.77 µM (inactive) | 17.4 µM (inactive) | 8.77 µM (inactive) | 5.74 µM (inactive) | 14.2 µM (inactive) | 7.21 µM (inactive) | 3.94 µM (inactive) | 0.873 µM (active) | 1.97 µM (inactive) | 6.37 µM (inactive) | 13.1 µM (inactive) | 12 µM (inactive) | 5.86 µM (inactive) | 16.6 µM (inactive) | 3.76 µM (inactive) | 1.24 µM (inactive)
4 | CSc1c(C(=O)Nc2ccc(Cl)cc2)c(N)n(N)c(=O)c1C#N | 51.6 µM (inactive) | > 100 µM (inactive) | 58.1 µM (inactive) | 75.3 µM (inactive) | > 100 µM (inactive) | 36 µM (inactive) | – | > 100 µM (inactive) | > 100 µM (inactive) | 48.8 µM (inactive) | 25.7 µM (inactive) | 57.4 µM (inactive) | 31.8 µM (inactive) | 58.9 µM (inactive) | > 100 µM (inactive) | > 100 µM (inactive) | 68.5 µM (inactive) | > 100 µM (inactive) | 55.2 µM (inactive) | > 100 µM (inactive)
5 | C[C@]12CC[C@H](O)CC1=CC[C@@H]1[C@@H]2CC[C@]2(C)C(=N/O)/C(=C/c3ccc([N+](=O)[O-])cc3)C[C@@H]12 | 6.75 µM (inactive) | 7.43 µM (inactive) | 6.03 µM (inactive) | 3.78 µM (inactive) | 3.65 µM (inactive) | 3.33 µM (inactive) | 0.619 µM (active) | 2.59 µM (inactive) | 4.09 µM (inactive) | 1.76 µM (inactive) | 3.18 µM (inactive) | 3.59 µM (inactive) | 8.34 µM (inactive) | 1.61 µM (inactive) | 4.53 µM (inactive) | – | 5.33 µM (inactive) | 0.403 µM (active) | 2.82 µM (inactive) | 2.51 µM (inactive)
6 | CSc1nc(SC)c2c(C)cn(C3OC(C)C(O)C(O)C3O)c2n1 (stereo unspecified) | 87.1 µM (inactive) | > 100 µM (inactive) | 67.3 µM (inactive) | 58.9 µM (inactive) | – | 27.9 µM (inactive) | > 100 µM (inactive) | > 100 µM (inactive) | 21 µM (inactive) | 48.8 µM (inactive) | 96.2 µM (inactive) | 42.4 µM (inactive) | 31.8 µM (inactive) | > 100 µM (inactive) | 73.5 µM (inactive) | 62.2 µM (inactive) | 64.1 µM (inactive) | > 100 µM (inactive) | 74.6 µM (inactive) | 33.3 µM (inactive)
7 | CCOP(=O)(OCC)/C(C#N)=C/c1ncc[nH]1 | > 100 µM (inactive) | > 100 µM (inactive) | > 100 µM (inactive) | > 100 µM (inactive) | > 100 µM (inactive) | > 100 µM (inactive) | > 100 µM (inactive) | > 100 µM (inactive) | 8.32 µM (inactive) | > 100 µM (inactive) | > 100 µM (inactive) | > 100 µM (inactive) | > 100 µM (inactive) | > 100 µM (inactive) | > 100 µM (inactive) | – | > 100 µM (inactive) | > 100 µM (inactive) | > 100 µM (inactive) | > 100 µM (inactive)
8 | CC1(C)CCC[C@@]2(C)C1CC[C@@]1(CO)O[C@H](C3=CC(=O)OC3O)C[C@H]12 (stereo partly specified) | 11.8 µM (inactive) | 11 µM (inactive) | 15 µM (inactive) | 6.82 µM (inactive) | 14.9 µM (inactive) | 15 µM (inactive) | 14.9 µM (inactive) | 22.9 µM (inactive) | 19.3 µM (inactive) | 14.9 µM (inactive) | 3.69 µM (inactive) | 3.87 µM (inactive) | 1.56 µM (inactive) | 22.8 µM (inactive) | 14.4 µM (inactive) | 19.7 µM (inactive) | 14.5 µM (inactive) | 29.4 µM (inactive) | 15.6 µM (inactive) | 2.71 µM (inactive)
9 | COc1cc(Br)c(CC2C3=C(CCN2C(=O)C2CCC2)CC2(CC3)OCCO2)cc1O (stereo unspecified) | 62.5 µM (inactive) | 65 µM (inactive) | 26.5 µM (inactive) | 28.6 µM (inactive) | 32.5 µM (inactive) | 62.2 µM (inactive) | > 100 µM (inactive) | 34.2 µM (inactive) | > 100 µM (inactive) | 33.5 µM (inactive) | 27.7 µM (inactive) | 36.6 µM (inactive) | > 100 µM (inactive) | > 100 µM (inactive) | > 100 µM (inactive) | 29.2 µM (inactive) | 34.4 µM (inactive) | 68.2 µM (inactive) | > 100 µM (inactive) | 28.1 µM (inactive)
10 | CCN(CC)CCNc1ccc2nnn3c4ccc(O)cc4c(=O)c1c23 | 6.65 µM (inactive) | 4.93 µM (inactive) | 1.47 µM (inactive) | 2.7 µM (inactive) | 12.2 µM (inactive) | 8.83 µM (inactive) | 1.76 µM (inactive) | 6.98 µM (inactive) | 1.71 µM (inactive) | 8.02 µM (inactive) | 6.82 µM (inactive) | 2 µM (inactive) | 1.21 µM (inactive) | 8.02 µM (inactive) | 11.3 µM (inactive) | 5.56 µM (inactive) | 2.64 µM (inactive) | 8.22 µM (inactive) | 1.49 µM (inactive) | 0.06 µM (active)
